Measurements from patent US10364256B2 (GlaxoSmithKline Intellectual Property Development Limited, priority 2015, dated 2019).
pEC50, pIC50: −log10 of the molar value. Counter-ions that a name gives are not always drawn. Like-named read-outs stand apart in the source and are kept apart here.

Experiments:
[1] = tested on: NQO1 specific enzyme activity in BEAS-2B cells (marker for NRF2 activation); assay: BEAS-2B NQO1 MTT Assay; type: cell-based; settings: compound incubated 48 hours, read-out: EC50 (NQO1 specific enzyme activity induction)
How it was run: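 BEAS-2B cells treated with compound for 48 h at 37 °C, then lysed; NQO1 activity in lysates measured kinetically by MTT reduction at A570 over 30 min. pEC50 from 3-parameter fit of ΔOD/min versus log concentration; lysate also taken for Cell Titer Glo.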

[2] = biological target: T1, full length Keap1 protein / full length NRF2 protein (Homo sapiens, UniProt Q14145); assay: NRF2-Keap1 TR-FRET Low Protein Assay; type: binding; settings: 1.25 nM Keap1 FlagHis and 2.5 nM biotin-NRF2 added
T1 construct: full length NRF2 protein and full length Keap1 protein (Keap1 exists a dimer) are used; His
How it was run: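 Flag-tagged full-length Keap1 was preincubated with compound (3-fold series) for 2.25 h at 37 °C in Tris pH 8.0/MgCl2/NaCl/BSA/DTT/CHAPS. Biotin-Avi-NRF2 (added at 2.5 nM) was then bound for 1.25 h at 4 °C. Eu-streptavidin/anti-Flag-APC TR-FRET (665/615 nm) was read after 1 h at RT, and pIC50 came from a four-parameter fit.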

[3] = biological target: T2, Keap1 Kelch domain (321-609) / TAMRA-labeled 16mer NRF2 peptide (ETGE motif) (Homo sapiens, UniProt Q14145); assay: NRF2-Keap1 FP Assay (Keap1 Kelch fluorescence polarization); type: binding; settings: 20 nM Keap1 (321-609), 8 nM Tamra labeled peptide
T2 construct: the Kelch domain (321-609) of Keap1 is used
How it was run: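 Compound dilutions (3-fold) were incubated 1 hr at room temperature with 20 nM Keap1 Kelch (321-609) and 8 nM TAMRA-labeled ETGE 16mer peptide. Buffer was 50 mM Tris pH 8.0, 100 mM NaCl, 5 mM MgCl2, 1 mM DTT, 2 mM CHAPS, 0.005% BSA. Fluorescence polarization (mP) was normalized to controls and fitted with a four-parameter equation to give pIC50.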

T2 sequence (Q14145 321-609): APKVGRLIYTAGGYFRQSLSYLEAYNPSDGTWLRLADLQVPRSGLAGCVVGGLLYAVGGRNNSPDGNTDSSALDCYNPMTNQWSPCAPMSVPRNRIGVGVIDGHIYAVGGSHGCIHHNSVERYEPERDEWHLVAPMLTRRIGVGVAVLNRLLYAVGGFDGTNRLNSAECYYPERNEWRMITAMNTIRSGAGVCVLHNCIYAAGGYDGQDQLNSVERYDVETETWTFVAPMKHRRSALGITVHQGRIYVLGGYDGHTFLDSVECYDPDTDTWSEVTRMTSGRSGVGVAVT
T1 sequence (Q14145 whole entry): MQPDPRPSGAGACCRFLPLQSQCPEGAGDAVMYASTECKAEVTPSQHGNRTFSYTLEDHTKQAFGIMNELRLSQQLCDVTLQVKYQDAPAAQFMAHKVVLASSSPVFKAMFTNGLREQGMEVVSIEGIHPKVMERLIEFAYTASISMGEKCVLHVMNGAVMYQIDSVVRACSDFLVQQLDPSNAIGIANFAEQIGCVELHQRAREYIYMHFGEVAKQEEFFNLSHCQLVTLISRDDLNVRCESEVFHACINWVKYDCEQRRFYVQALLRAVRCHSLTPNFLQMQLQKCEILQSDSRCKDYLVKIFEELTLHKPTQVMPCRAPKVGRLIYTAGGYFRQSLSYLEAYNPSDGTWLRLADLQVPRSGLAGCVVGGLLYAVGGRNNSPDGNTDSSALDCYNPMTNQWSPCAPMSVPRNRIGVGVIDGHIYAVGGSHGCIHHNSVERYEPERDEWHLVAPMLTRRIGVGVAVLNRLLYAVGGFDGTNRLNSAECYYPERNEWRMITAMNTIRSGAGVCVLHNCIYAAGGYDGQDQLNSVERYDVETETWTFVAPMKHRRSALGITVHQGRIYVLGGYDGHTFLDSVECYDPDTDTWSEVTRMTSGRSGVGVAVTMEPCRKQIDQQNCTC

| pIC50 [2] | pIC50 [3] | SMILES | pEC50 ([1]; Homo sapiens) | pEC50 ([1]; Homo sapiens, BEAS-2B, 48 h) | pEC50 [1] |
| --- | --- | --- | --- | --- | --- |
| 6.00 to 7.00 | 5.00 to 6.00 | C[C@H](Oc1cccc(-c2cccc(-n3ncc(C(=O)O)c3[C@H]3C[C@@H]3c3cn(C4CCOCC4)nn3)c2)c1)C1CCCCC1 [Example 96] | 6.00 to 7.00 | – | – |
| 7.00 to 8.00 | 7.00 to 8.00 | C[C@H](Oc1cccc(-c2cccc(-n3ncc(C(=O)O)c3[C@@H]3C[C@H]3c3cn(C4CCN(C)CC4)nn3)c2)c1)C1CCCCC1 (racemic) [Example 82, 1-(3′-((S)-1-Cyclohexylethoxy)-[1,1′-biphenyl]-3-yl)-5-(trans-2-(1-(1-methylpiperidin-4-yl)-1H-1,2,3-triazol-4-yl)cyclopropyl)-1H-pyrazole-4-carboxylic acid] | 7.00 to 8.00 | – | – |
| 6.00 to 7.00 | < 5.00 | C[C@H](Oc1cccc(-c2cccc(-n3ncc(C(=O)OCOC(=O)c4ccccc4)c3[C@@H]3C[C@H]3c3cn(C)nn3)c2)c1)C1CCCCC1 [Example 111, (Benzoyloxy)methyl 1-(3′-((S)-1-cyclohexylethoxy)-[1,1′-biphenyl]-3-yl)-5-((1R,2R)-2-(1-methyl-1H-1,2,3-triazol-4-yl)cyclopropyl)-1H-pyrazole-4-carboxylate] | 8.00 to 9.00 | – | – |
| > 8.00 | 7.00 to 8.00 | C[C@H]1Cc2ccc(Br)cc2S(=O)(=O)N(Cc2cccc(-c3cccc(-n4ncc(C(=O)O)c4[C@@H]4C[C@H]4c4cn(C)nn4)c3)c2F)C1 [Example 131, 1-(3′-(((S)-8-Bromo-4-methyl-1,1-dioxido-4,5-dihydrobenzo[f][1,2]thiazepin-2(3H)-yl)methyl)-2′-fluoro-[1,1′-biphenyl]-3-yl)-5-((1R,2R)-2-(1-methyl-1H-1,2,3-triazol-4-yl)cyclopropyl)-1H-pyrazole-4-carboxylic acid] | 6.00 to 7.00 | – | – |
| 7.00 to 8.00 | 6.00 to 7.00 | C[C@H]1Cc2ccccc2S(=O)(=O)N(Cc2cccc(-c3cccc(-n4ncc(C(=O)O)c4[C@H]4C[C@@H]4c4cn(C)nn4)c3)c2)C1 [Example 133, 1-(3′-(((S)-4-methyl-1,1-dioxido-4,5-dihydrobenzo[f][1,2]thiazepin-2(3H)-yl)methyl)-[1,1′ biphenyl]-3-yl)-5-((1S,2S)-2-(1-methyl-1H-1,2,3-triazol-4-yl)cyclopropyl)-1H-pyrazole-4-carboxylic acid] | 5.00 to 6.00 | – | – |
| > 8.00 | 7.00 to 8.00 | C[C@H](Oc1cccc(-c2cccc(-n3ncc(C(=O)O)c3[C@@H]3C[C@H]3c3c[nH]nn3)c2)c1)C1CCCCC1 [Example 99, 5-((1R,2R)-2-(1H-1,2,3-Triazol-4-yl)cyclopropyl)-1-(3′-((S)-1-cyclohexylethoxy)-[1,1′-biphenyl]-3-yl)-1H-pyrazole-4-carboxylic Acid] | 8.00 to 9.00 | – | – |
| 5.00 to 6.00 | < 5.00 | C[C@H](Oc1cccc(-c2cccc(-n3ncc(C(=O)OCCN4CCOCC4)c3[C@@H]3C[C@H]3c3cn(C)nn3)c2)c1)C1CCCCC1 [Example 108, 2-Morpholinoethyl 1-(3′-((S)-1-cyclohexylethoxy)-[1,1′-biphenyl]-3-yl)-5-((1R,2R)-2-(1-methyl-1H-1,2,3-triazol-4-yl)cyclopropyl)-1H-pyrazole-4-carboxylate] | 7.00 to 8.00 | – | – |
| > 8.00 | 7.00 to 8.00 | C[C@H](Oc1cccc(-c2cccc(-n3ncc(C(=O)O)c3[C@@H]3C[C@H]3c3cn(C4CC4)nn3)c2)c1)C1CCCCC1 [Example 98, 1-(3′-((S)-1-Cyclohexylethoxy)-[1,1′-biphenyl]-3-yl)-5-((1R,2R)-2-(1-cyclopropyl-1H-1,2,3-triazol-4-yl)cyclopropyl)-1H-pyrazole-4-carboxylic acid] | 8.00 to 9.00 | – | – |
| 7.00 to 8.00 | 7.00 to 8.00 | C[C@H](Oc1cccc(-c2cccc(-n3ncc(C(=O)O)c3[C@@H]3C[C@H]3c3cn(C4CCNCC4)nn3)c2)c1)C1CCCCC1 (racemic) [Example 86, 1-(3′-((S)-1-cyclohexylethoxy)-[1,1′-biphenyl]-3-yl)-5-(trans-2-(1-(piperidin-4-yl)-1H-1,2,3-triazol-4-yl)cyclopropyl)-1H-pyrazole-4-carboxylic Acid] | 6.00 to 7.00 | – | – |
| 6.00 to 7.00 | 7.00 to 8.00 | C[C@H](Oc1cccc(-c2cccc(-n3ncc(C(=O)O)c3[C@@H]3C[C@H]3c3cn(-c4ccccc4)nn3)c2)c1)C1CCCCC1 (racemic) [Example 92] | 8.00 to 9.00 | – | – |
| > 8.00 | 7.00 to 8.00 | CC[C@@H]1CN(Cc2cccc(-c3cccc(-n4ncc(C(=O)O)c4[C@@H]4C[C@H]4c4cn(C)nn4)c3)c2)S(=O)(=O)c2cccnc2O1 (racemic) [Example 138, 1-(3′-(((R)-4-ethyl-1,1-dioxido-3,4-dihydro-2H-pyrido[2,3-b][1,4,5]oxathiazepin-2-yl)methyl)-[1,1′-biphenyl]-3-yl)-5-((1,2-trans)-2-(1-methyl-1H-1,2,3-triazol-4-yl)cyclopropyl)-1H-pyrazole-4-carboxylic acid] | 5.00 to 6.00 | – | – |
| > 8.00 | 7.00 to 8.00 | CC[C@H]1c2ccccc2OC(C)(C)CN1Cc1cccc(-c2cccc(-n3ncc(C(=O)O)c3[C@@H]3C[C@H]3c3cn(C)nn3)c2)c1 (single isomer, unassigned; isomer 1) [Example 124] | 7.00 to 8.00 | – | – |
| 5.00 to 6.00 | 5.00 to 6.00 | Cc1c(O[C@@H](C)C2CCCCC2)cccc1-c1cccc(-n2ncc(C(=O)O)c2[C@H]2C[C@@H]2c2cn(C)nn2)c1 (racemic) [Example 71, 1-(3′-((S)-1-Cyclohexylethoxy)-2′-methyl-[1,1′-biphenyl]-3-yl)-5-(trans-2-(1-methyl-1H-1,2,3-triazol-4-yl)cyclopropyl)-1H-pyrazole-4-carboxylic Acid] | 5.00 to 6.00 | – | – |

| SMILES | pIC50 [2] | pIC50 [3] | pEC50 ([1]; Homo sapiens) | pEC50 ([1]; Homo sapiens, BEAS-2B, 48 h) | pEC50 [1] |
| --- | --- | --- | --- | --- | --- |
| C[C@H](Oc1cccc(-c2cccc(-n3ncc(C(=O)O)c3[C@@H]3C[C@H]3c3cn(C)nn3)c2)c1)C1CCCCC1 [Example 68, 1-(3′-((S)-1-Cyclohexylethoxy)-[1,1′-biphenyl]-3-yl)-5-((1R,2R)-2-(1-methyl-1H-1,2,3-triazol-4-yl)cyclopropyl)-1H-pyrazole-4-carboxylate, Sodium salt] | > 8.00 | 7.00 to 8.00 | – | 8.00 to 9.00 | – |
| C[C@H](Oc1cccc(-c2cccc(-n3ncc(C(=O)O)c3[C@@H]3C[C@H]3c3cn(C4CCN(C(=O)OC(C)(C)C)CC4)nn3)c2)c1)C1CCCCC1 (racemic) [Example 81, 5-(trans-2-(1-(1-(tert-Butoxycarbonyl)piperidin-4-yl)-1H-1,2,3-triazol-4-yl)cyclopropyl)-1-(3′-((S)-1-cyclohexylethoxy)-[1,1′-biphenyl]-3-yl)-1H-pyrazole-4-carboxylic acid] | 6.00 to 7.00 | 6.00 to 7.00 | 7.00 to 8.00 | – | – |
| C[C@H](Oc1cccc(-c2cccc(-n3ncc(C(=O)O)c3[C@@H]3C[C@H]3c3cn(C)nn3)c2)c1)C1CCCCC1 [Example 69, Barium 1-(3′-((S)-1-Cyclohexylethoxy)-[1,1′-biphenyl]-3-yl)-5-((1R,2R)-2-(1-methyl-1H-1,2,3-triazol-4-yl)cyclopropyl)-1H-pyrazole-4-carboxylate Hydroxide] | > 8.00 | 8.00 to 9.00 | – | – | > 9.00 |
